Patent publication US11083197B2, “Herbicidal composition comprising chromone derivatives and a method for weed control” (INVESTIGACIONES BIOLÓGICAS EN AGROQUÍMICOS ROSARIO S.A., priority 2015, dated 2021)
Like-named read-outs stand apart in the source and are kept apart here.

Key:
lettuce (Lactuca sativa) = assay: Germination / dose-response bioassay with lettuce; format: in vivo; conditions: for Phytotoxicity at day 7, Lettuce: 1 mM, 24-well plates, rating scale of 0 to 5; for IC50 / inhibition at 1000 µg/mL: lettuce; for IC50: 7 days; for inhibition at 1000 µg/mL: 1 mg/mL, day 7; for lettuce germination: fractions at 1 mg/mL
Experimental: DCM extract of flowers of A. visnaga (1.6 g) was divided in two 800 mg halves and each one was subjected to column chromatography using an Isolera One system (Biotage), equipped with UV detector (302 and 365 nm) and automatic fraction collector. Separation was performed by normal-phase chromatography column using a SNAP Cartridge KP-Sil (37×157 mm, 50 μm irregular silica, 100 g, Biotage) and a pre-packaged SNAP Samplet Cartridge KP-Sil (37×17 mm, Biotage). A full gradient of hexane:ethyl acetate was used for elution, from 100:0 to 0:100 over 3000 ml. Flow was 40 ml/min and 25 ml fractions were collected. Equal fractions were combined based on similarities on their TLC and chromatogram profiles providing nineteen fractions named I to XIX. All fractions were evaluated for their phytotoxicity on germination bioassay of lettuce (L. sativa) and creeping bentgrass (A. stolonifera).
A filter paper and 5 lettuce or 10 mg of creeping bentgrass seeds were placed in each well of a 24-well plate. Stock solutions (10×) of test compounds were prepared in acetone. 180 μl of distilled water were added to each well together with 20 μl of stock solution or acetone in solvent control. Final concentration of acetone was 10% v/v. Plates were sealed with Parafilm, and incubated at 26° C. in a growth chamber set at 173 μmol m^−2 s^−1 continuous photosynthetically active radiation. Phytotoxic activity was qualitatively evaluated by visually comparing germination in each well with solvent control at 7 days. A qualitative estimation of phytotoxicity was obtained by using a rating scale of 0 to 5, where 0 was no effect, and 5 was no germination of seeds. This procedure was also used for testing the phytotoxicity of pure compounds on ryegrass. On this experiment 12-well plates were used. 10 seeds were placed per well and final volume was 300 μl in each one. During dose-response bioassays used for IC50 determination, germination percentage and length of plants were measured at 7 days in order to determine the concentration required for 50% germination and growth inhibition (IC50). All experiments were done in triplicate.
Using method described in Example 1, compounds of Formula III and IV above were tested against lettuce and ryegrass.
The percentage of germination and length of plants were determined at 7 days. Data represents means of three replicates±SD. The IC50 values, for both germination and growth inhibition by compounds III and IV on lettuce and ryegrass, were obtained from estimated parameters in the regression curves.
(§1) Statistical Analysis. Data from dose-response experiments were analyzed by a log-logistic model^37-38 using the dose-response curve module^39 of R software version 2.2.1.^40 Concentrations required for 50% germination or growth inhibition relative to control (IC50 values) were obtained from estimated parameters in the regression curves. The standard error (SE) of each estimation is provided. Data from phytotoxicity bioassays in the laboratory and greenhouse, ROS and cell death quantifications were analyzed by ANOVA using the InfoStat statistical software version 2015,^41 and Scheffe's test was employed to compare the means at α=0.05.

[1] = test system: duckweed (Lemna paucicostata); assay: Dose-response bioassay with duckweed; format: in vivo; conditions: frond area increase between days 1 and 7, read-out: IC50 (μM) ± SE, duckweed growth inhibition
Experimental: Phytotoxic activity of compounds of formula III and IV above as evaluated on duckweed. Duckweed stocks were grown from a single colony consisting of a mother and two daughter fronds in a beaker on modified Hoagland media (Table 3 below). The medium was adjusted to pH 5.5 with 1 M NaOH and filtered through a 0.2 μm filter. Each well of non-pyrogenic polystyrene sterile 6-well plates was filled with 4.950 ml of Hoagland media and, 50 μl of distilled water, 50 μl of acetone in solvent control or 50 μl of acetone containing the appropriate concentration of test compound. The final concentration of acetone was 1% v/v. Two, three-frond colonies from 4 to 5 d-old stock cultures were placed in each well. Plates were placed in an incubator with white light (94.2 μE m^−2 s^−1). Total frond area per well was recorded by the Scanalyzer (LemnaTec, Germany) image analysis system from days 0 to 7. Percentage of increase between days 1 and 7 was determined relative to baseline area at day zero.
Percentage of increase between days 1 and 7 was determined relative to baseline area at day zero. Data represents means of three replicates±SD.
as §1

cucumber cotyledon disks = assay: Detection and measurement of reactive oxygen species (DCFDA); format: cell-based; conditions: 300 μM; for ROS levels: 16 h darkness then high light intensity 5 h; for ROS generation: complete darkness for 30 h
Experimental: ROS cellular localization was determined by confocal microscopy using the fluorescent probe 2′,7′-dichlorofluorescein diacetate (DCFDA). Cucumber cotyledon disks (1 cm) were treated as described for the electrolyte leakage assay. Five disks were placed in 5 cm-Petri plates and exposed to different dilutions of compounds of formulas III and IV (0, 100 and 300 μM). Disks were incubated in darkness for 16 h before exposure to high light intensity for 5 h, or in darkness for 30 h. As positive control, disks were exposed to the same solvent as treated tissues but with 10 mM hydrogen peroxide (H2O2) for 30 min in the light. After each treatment, they were vacuum-infiltrated in the dark with 50 μM DCFDA in 10 mM Tris-HCl pH 7.5, and ROS were visualized in an Eclipse TE-2000-E2 Nikon confocal microscope with excitation at 488 nm and emission at 515/530 nm. Green fluorescence intensities were quantified using the image processing package Fiji of ImageJ software.

cucumber leaf disks = assay: Cell death determination by Evans blue staining, leaf disks; format: cell-based; conditions: 7 days; for increase in relative cell death with respect to the control: 100 μM; for increase in relative cell death: 300 μM
Experimental: To evaluate cell death in roots, onion seeds were germinated and treated as described in postemergence assay with weed species. Onion seedlings were exposed to different doses of compounds of formulas III and IV (0, 100 and 300 μM) during 4 days. For the experiment with leaf disks 3-weeks-cucumber plants were used. One disk (1 cm) was placed in each well of a 12-well plate together with 1 mL of a 2% w/v sucrose/1 mM MES, pH 6.5 solution containing each of the compounds tested at the appropriate concentration (0, 100 or 300 μM) and acetone (1% v/v). Each assay was performed with leaf disks from different plants. Plates were sealed with Parafilm and incubated in a growth chamber at 21-27° C. with a 16/8 h light/dark cycle for 7 days.
Cell death was determined by Evans blue staining.^26 Root tips (5-mm sections) and leaf disks were incubated for 30 min in 0.25% w/v Evans blue aqueous solution at 25° C. on a rotary shaker. After staining, unbound dye was removed by extensive washing with deionized water. Three root tips (3 replicates) or one leaf disk (4 replicates) were ground in a tissue grind tube with 500 μL 1% w/v sodium dodecyl sulfate (SDS). The resulting suspension was centrifuged for 20 min at 20,000 g and the supernatant was used for dye quantification by monitoring the absorbance at 600 and 680 nm. Relative cell death was expressed as A600 for root tips and A600/A680 ratios for leaf disks.

[2] = test system: green alga Chlamydomonas reinhardtii; conditions: equimolar concentrations and equal UV-A doses; cited from earlier work
[3] = Lactuca sativa, 168 h, read-out: IC50(μM) ± SE to inhibit germination
[4] = Lactuca sativa, 168 h, read-out: IC50(μM) ± SE to inhibit growth

Compound	Phytotoxicity at day 7, Lettuce (lettuce (Lactuca sativa))	IC50 (lettuce (Lactuca sativa); [3]) [µM]	IC50 (lettuce (Lactuca sativa); [4]) [µM]	inhibition at 1000 µg/mL (lettuce (Lactuca sativa); Lactuca sativa, 168 h) [%]	lettuce germination (lettuce (Lactuca sativa))	IC50 (lettuce (Lactuca sativa); read-out: IC50(μM) ± SE to inhibit germination) [µM]	IC50 ([1]; Lemna aequinoctialis) [µM]	IC50 [1] [µM]	ROS levels (cucumber cotyledon disks)	ROS generation (cucumber cotyledon disks)	increase in relative cell death with respect to the control (cucumber leaf disks) [%]	increase in relative cell death (cucumber leaf disks) [fold]	IC50 (lettuce (Lactuca sativa); read-out: IC50(μM) ± SE to inhibit growth) [µM]	phototoxicity and photomutagenicity compared with bergapten [2]
COc1c2occc2c(OC)c2c(=O)cc(C)oc12 [Formula III, 4,9-dimethoxy-7-methyl-5H-furo[3,2-g]chromen-5-one]	3	700	110	100	completely inhibited	701 ± 93	160	162 ± 29	significantly higher than in the control	not detected	~35	3.5	–	–
COc1c2ccoc2cc2oc(C)cc(=O)c12 [Formula IV, 4-methoxy-7-methyl-5H-furo[3,2-g]chromen-5-one]	3	740	170	100	completely inhibited	–	120	122 ± 28	significantly higher than in the control	not detected	~35	3.5	175 ± 16	much less phototoxic and photomutagenic than bergapten
